Source: patent publication US20110288154A1, “RNA Interference Mediated Inhibition of Epithelial Sodium Channel (ENaC) Gene Expression Using Short Interfering Nucleic Acid (siNA)” (MERCK & CO., INC., priority 2008, published 2011)
[invAb] = inverted abasic unit; d = 2'-deoxy (DNA); m = 2'-O-methyl; r = 2'-OH (RNA); f = 2'-fluoro

Test system: ENaCα mRNA
Assay: Screening of ENaCα siNAs in human A549 cells (quantitative RT-PCR)
Format: cell-based
Design: Percent Reduction of the ENaCα mRNA relative to a non-targeting control siNA (NTC): concentration or dose not given beside the values
Conditions: human A549 cells, n = 3; for Avg ENaCα Expression: 25 nM siNA with Lipofectamine 2000, harvested 24 hours post-transfection; for Mean (level of ENaCα expression normalized to the level of GAPDH) / Percent Reduction of the ENaCα mRNA relative to a non-targeting control siNA (NTC) / Avg GAPDH Expression: 24 hours post-transfection; for Avg GAPDH Expression: housekeeping gene used for normalisation
Method: siNA constructs (Table 1b) may be tested for efficacy in reducing ENaC RNA expression in, for example, A549 human lung carcinoma cells. A549 (human; ATCC cat# CCL-185) cells were cultured at 37° C. in the presence of 5% CO2 and grown in Ham's F12K medium with 2 mM L-glutamine adjusted to contain 1.5 g/L sodium bicarbonate and supplemented with fetal bovine serum at a final concentration of 10% and 100 U/mL penicillin. The A549 cells were plated approximately 24 hours before transfection in 96-well plates at 7,500 cells/well, 100 μl/well. After 24 hours complexes containing siNA and Lipofectamine 2000 (Invitrogen) were created as follows: a solution of Lipofectamine 2000 in OPTI-MEM was prepared containing Lipofectamine 2000 at a final concentration of 14 μg/ml. In parallel, solutions of the siNAs were prepared in OPTI-MEM at a final concentration of 150 nM. After both solutions were incubated at 20° C. for 20 minutes an equal volume of the siNA solutions and the Lipofectamine 2000 solution were added together for each of the siNAs. The resultant solution has the siNAs at a final concentration of 75 nM and Lipofectamine 2000 at a final concentration of 7 μg/ml. This solution was incubated at 20° C. for 20 minutes. After incubation 50 μl of the solution were added to each of the wells (in triplicate). The final concentration of siNA in each well was 25 nM and the final concentration of Lipofectamine 2000 in each well was 2.33 μg/ml. […] Dose response curves were determined in a similar manner with each concentration being done in triplicate and maintaining a constant amount of Lipofectamine 2000 in each transfection.
RNA was extracted from 96-well plates using the Invitek Invisorb RNA Cell HTS 96 Kit/C (Cat# 70619000) with a slightly modified protocol. The details of the protocol for isolating RNA from each plate are described as follows:
1) Aspirate media with rake 2) Add 150 ul/well Lysis buffer 3) Place on plate shaker for 1 minute 4) Place DNA binding plate on top of 0.5 ml collection plate 5) Pipette 190 ul up and down twice and add to DNA binding plate 6) Cover plate 7) Centrifuge plates 4 minutes at 4000 RPM 8) Discard DNA binding plate 9) Place the RNA binding plate on top of 2 ml collection plate 10) Add 150 ul/well of Binding Buffer R to 0.5 ml collection plate 11) Move contents of 0.5 ml collection plate to RNA binding plate 12) Let incubate for 1 minute 13) Centrifuge plates 4 minutes at 4000 RPM 14) Add 600 ul/well of Wash Buffer R1 to RNA binding plate 15) Centrifuge plates 4 minutes at 4000 RPM 16) Dump wash buffer from 2 ml collection plate 17) Add 400 ul/well of Wash Buffer R2 to RNA binding plate 18) Centrifuge plates 4 minutes at 4000 RPM 19) Add 400 ul/well of Wash Buffer R2 to RNA binding plate 20) Centrifuge plates 10 minutes at 4000 RPM 21) Dump wash buffer from 2 ml collection plate 22) Centrifuge plates 3 minutes at 4000 RPM 23) Discard 2 ml collection plate and place RNA binding plate on to microtiter plate 24) Add 100 ul/well of elution buffer to RNA binding plate 25) Incubate for 2 minutes 26) Seal plate 27) Centrifuge plates 3 minutes at 4000 RPM 28) Discard RNA binding plate 29) Cover microtiter plate for storage in −80 freezer
A series of probes and primers were used to detect the various mRNA transcripts of the genes of ENaCa and GAPDH in mouse, rat, and human cell lines. The assays were performed on an ABI 7500 instrument, according to the manufacturer's instructions. Within each experiment, the baseline was set in the exponential phase of the amplification curve, and based on the intersection point of the baselines with the amplification curve, a Ct value was assigned by the instrument. This Ct value was then assigned a QTY value based on the Standard Curve. The standard curve in the various experiments herein used 1 ng to 300 ng of RNA extracted from the same cell line used for the experimental transfections. […]

Substance	Avg ENaCα Expression	Mean (level of ENaCα expression normalized to the level of GAPDH)	Percent Reduction of the ENaCα mRNA relative to a non-targeting control siNA (NTC) [%]	Avg GAPDH Expression
B AccuGGGcAGccAGuGGAG TTB / CUCcAcuGGcuGcccAGGuUU (sense ACCUGGGCAGCCAGUGGAGTT; antisense CUCCACUGGCUGCCCAGGUUU; siRNA; sense: DNA at AGT, 2'-fluoro at CU, [invAb] at 5' end, 3' end, backbone not given here; antisense: sugars from the 5' end rrrfmffmmffmfffmmmfmm, backbone not given here) [Site 1748]	80.25	0.61	7.2	131.14
B GGGcAGccAGuGGAGccuG TTB / CAGGcuccAcuGGcuGcccUU (sense GGGCAGCCAGUGGAGCCUGTT; antisense CAGGCUCCACUGGCUGCCCUU; siRNA; sense: DNA at AGT, 2'-fluoro at CU, [invAb] at 5' end, 3' end, backbone not given here; antisense: sugars from the 5' end rrrmffffmffmmffmfffmm, backbone not given here) [Site 1752]	82.06	0.60	9.4	137.51
B AAccGCAuGAAGAcGGccu TTB / AGGccGucuucAuGcGGuuUU (chain 1 AACCGCAUGAAGACGGCCUTT; chain 2 AGGCCGUCUUCAUGCGGUUUU; siRNA; chain 1: sugars from the 5' end ddffdddfdddddfddfffdd, [invAb] at 5' end, 3' end, backbone not given here; chain 2: sugars from the 5' end rrrffmfffffmfmfmmffmm, backbone not given here) [Site 337]	67.27	1.48	5.0	49.84
B uGuGGcuGuGccuAcAucu TTB / AGAuGuAGGcAcAGccAcAUU (sense UGUGGCUGUGCCUACAUCUTT; antisense AGAUGUAGGCACAGCCACAUU; siRNA; sense: DNA at AGT, 2'-fluoro at CU, [invAb] at 5' end, 3' end, backbone not given here; antisense: sugars from the 5' end rrrfmfmmmfmfmmffmfmmm, backbone not given here) [Site 1384]	82.65	0.80	−21.6	103.38
B ccGcAuGAAGAcGGccuuc TTB / GAAGGccGucuucAuGcGGUU (chain 1 CCGCAUGAAGACGGCCUUCTT; chain 2 GAAGGCCGUCUUCAUGCGGUU; siRNA; chain 1: DNA at AGT, 2'-fluoro at CU, [invAb] at 5' end, 3' end, backbone not given here; chain 2: sugars from the 5' end rrrmmffmfffffmfmfmmmm, backbone not given here) [Site 339]	69.05	1.13	27.1	62.02
B cuccuGuccAAccuGGGcA TTB / UGCccAGGuuGGAcAGGAGUU (sense CUCCUGUCCAACCUGGGCATT; antisense UGCCCAGGUUGGACAGGAGUU; siRNA; sense: DNA at AGT, 2'-fluoro at CU, [invAb] at 5' end, 3' end, backbone not given here; antisense: sugars from the 5' end rrrffmmmffmmmfmmmmmmm, backbone not given here) [Site 1738]	77.23	0.71	−7.4	108.96
